The nature of one data set: physchem. The data set is classed as physicochemical. How it is done: Equilibrium solubility data for S(+)-etodolac based on pH was determined by placing excess amounts of the S(+)-etodolac and about 5 mL of the dissolution medium in screw-capped vials which were covered with aluminum foil and then tumbled in a 25° C. water bath for 3 days. Slurries were filtered through […] Gelman disposable filters. Filtrates were appropriately diluted with their dissolution medium and analyzed by a Cary 210 UV-VIS spectrophotometer at 278 nm.
The dissolution media used for the pH-solubility profile and ionic strength effect were HCl, HAc--NaAc, KH2 PO4 --NaOH, K2 CO3 --KHCO3, H3 BO3 --NaOH, and NaOH solutions, where the ionic strengths of media were adjusted to be 0.1 by the addition of NaCl. Those solvent systems used for cosolvent solubilization were various ratios of PEG 400, ethanol, triethanolamine (TEA), and dimethylacetamide (DMA) to aqueous solutions. pH values of the slurries were measured before and after equilibrium.

A further data set has as its system animal models. To be noted: in vivo; cited from earlier work.
The conditions of data set [1]: Physicians' Desk Reference, 1995; cited from earlier work.
In the next data set the test system is acute pain. The conditions noted are these: cited from earlier work.
The conditions of data set [2]: in vivo; cited from earlier work.
For data set [3] the following is noted: J. Med. Chem. 1983, 26, 1778-1780; cited from earlier work.
Data set [4] can be described thus: Solubility in words (Physicians' Desk Reference and description). To be noted: acid form. The data set is classed as physicochemical.
Where [5] appears, read: 20% ethanol, organic solvent or mixture.
Where [6] appears, read: 20% peg 400, organic solvent or mixture.
[7] abbreviates: 40% ethanol, organic solvent or mixture.
The mark [8] stands for this setting: 40% peg 400, organic solvent or mixture.
Setting [9] is: 60% ethanol, organic solvent or mixture.
Where [10] appears, read: 60% peg 400, organic solvent or mixture.
[11] abbreviates: 80% ethanol, organic solvent or mixture.
Setting [12] is: 80% peg 400, organic solvent or mixture.
Where [13] appears, read: 100% ethanol, organic solvent or mixture.
Where [14] appears, read: 100% triethanolamine, organic solvent or mixture.

In brackets after ≈: the same amount, converted by molar mass. Read-outs that look alike come from different tables or passages of the source.

A word on the solubility: it is how much of the substance goes into solution per volume. What is called Solubility is the concentration that dissolves in the medium under given conditions. A higher Solubility goes with much dissolved substance. As for `CCc1cccc2c3c([nH]c12)C(CC)(CC(=O)O)OCC3` (racemic) [etodolac, (±) 1,8-diethyl-1,3,4,9-tetrahydropyrano[3,4-b]indole-1-acetic acid], the solubility at 72 h in “physchem” (2% triethanolamine) worked out at 37.7 mg/mL (≈ 131 mM); in the data set “physchem” (4% triethanolamine), 75.9 mg/mL (≈ 264 mM); in the data set “physchem” (6% triethanolamine), 122 mg/mL (≈ 423 mM); in “physchem” (8% triethanolamine), 226 mg/mL (≈ 785 mM); in the data set “physchem” (10% dimethylacetamide), 0.468 mg/mL (≈ 1.63 mM); in the data set “physchem” (10% triethanolamine), 294 mg/mL (≈ 1020 mM). Moreover, the solubility at 72 h came out at 0.956 mg/mL (≈ 3.33 mM) in the data set “physchem” (20% dimethylacetamide); 0.279 mg/mL (≈ 0.971 mM) in the data set “physchem” (setting [5]); 0.905 mg/mL (≈ 3.15 mM) in the data set “physchem” (setting [6]); 2.99 mg/mL (≈ 10.4 mM) in “physchem” (30% dimethylacetamide); 7.28 mg/mL (≈ 25.3 mM) in “physchem” (40% dimethylacetamide); 2.33 mg/mL (≈ 8.13 mM) in “physchem” (setting [7]). Also, the solubility at 72 h worked out at 3.58 mg/mL (≈ 12.5 mM) in the data set “physchem” (setting [8]); 34.9 mg/mL (≈ 122 mM) in the data set “physchem” (50% dimethylacetamide); 52.1 mg/mL (≈ 181 mM) in the data set “physchem” (60% dimethylacetamide); 23.8 mg/mL (≈ 82.7 mM) in “physchem” (setting [9]); 20.2 mg/mL (≈ 70.3 mM) in the data set “physchem” (setting [10]); 2630 mg/mL (≈ 9160 mM) in “physchem” (80% dimethylacetamide). For the same compound, the solubility at 72 h in the data set “physchem” (setting [11]) was 102 mg/mL (≈ 354 mM); in the data set “physchem” (setting [12]) it was 152 mg/mL (≈ 531 mM); in “physchem” (setting [13]), 234 mg/mL (≈ 815 mM); in the data set “physchem” (100% peg 400, organic solvent or mixture), 1730 mg/mL (≈ 6030 mM); in the data set “physchem” (setting [14]), 102 mg/mL (≈ 355 mM). This compound displayed a Solubility in “physchem” (100% dimethylacetamide, 72 h) of 4734. mg/mL. Further, in the data set with animal models, the “activities in animal models” value is “exhibits anti-inflammatory, analgesic, and antipyretic activities”. Also, the “solubility in alcohols, chloroform, dimethyl sulfoxide and aqueous polyethylene glycol” value in data set [1] is “soluble”. Moreover, the solubility in water entry in data set [1] is recorded as “insoluble”. Also, the figures for the “symptom relief for acute pain lasting” value with acute pain (single dose of 200 mg) and in the data set with acute pain (single dose of 400 mg) were 4 to 5 h and 5 to 6 h, respectively.
As to `CCc1cccc2c3c([nH]c12)[C@@](CC)(CC(=O)O)OCC3` [R(-) etodolac], the “certain purported adverse effects associated with the racemic mixture” value in data set [2] was “substantially reduces”.
With `CCc1cccc2c3c([nH]c12)[C@](CC)(CC(=O)O)OCC3` [S(+)-etodolac, S(+) 1,8-diethyl-1,3,4,9-tetrahydropyrano[3,4-b]indole-1-acetic acid], the “share of the effects of etodolac due to the enantiomer” value in data set [3] is on record as “virtually all of the effects of etodolac are due to the S(+) enantiomer”. In addition, the solubility at 72 h was found to be 0.073 mg/mL (≈ 0.254 mM) in “physchem” (0.001 n hcl, pH 3.24); 32.3 mg/mL (≈ 112 mM) in “physchem” (0.001 n naoh, pH 8.5); 4.56 mg/mL (≈ 15.9 mM) in the data set “physchem” (0.01 m phosphate buffer, pH 6.4, aqueous buffer); 7.81 mg/mL (≈ 27.2 mM) in “physchem” (0.01 m phosphate buffer, pH 6.63, aqueous buffer); 11.6 mg/mL (≈ 40.4 mM) in the data set “physchem” (0.04 m borate buffer, pH 8.61, aqueous buffer); 15.3 mg/mL (≈ 53.1 mM) in the data set “physchem” (0.04 m phosphate buffer, pH 8.59, aqueous buffer). Moreover, the solubility at 72 h was determined as 0.093 mg/mL (≈ 0.324 mM) in “physchem” (0.1 m acetate buffer, pH 4.03, aqueous buffer); 0.12 mg/mL (≈ 0.418 mM) in “physchem” (0.1 m acetate buffer, pH 4.41, aqueous buffer); 0.193 mg/mL (≈ 0.672 mM) in the data set “physchem” (0.1 m phosphate buffer, pH 4.63, aqueous buffer); 0.263 mg/mL (≈ 0.915 mM) in the data set “physchem” (0.1 m phosphate buffer, pH 4.98, aqueous buffer); 1.21 mg/mL (≈ 4.22 mM) in “physchem” (0.1 m phosphate buffer, pH 5.82, aqueous buffer); 0.08 mg/mL (≈ 0.278 mM) in “physchem” (0.1 n hcl, pH 1.14). Further, the solubility at 72 h in the data set “physchem” (0.1 n hcl, pH 2.13) worked out at 0.08 mg/mL (≈ 0.278 mM); in “physchem” (0.1 n naoh, pH 7.15) it was 29.4 mg/mL (≈ 102 mM); in the data set “physchem” (0.2 n naoh, pH 7.3) it was 58.8 mg/mL (≈ 205 mM); in “physchem” (2% triethanolamine) it was 39.4 mg/mL (≈ 137 mM); in “physchem” (4% triethanolamine), 77.8 mg/mL (≈ 271 mM); in the data set “physchem” (6% triethanolamine) it was 126 mg/mL (≈ 439 mM). Further, the solubility at 72 h was found to be 235 mg/mL (≈ 816 mM) in “physchem” (8% triethanolamine); 0.468 mg/mL (≈ 1.63 mM) in “physchem” (10% dimethylacetamide); 295 mg/mL (≈ 1030 mM) in the data set “physchem” (10% triethanolamine); 1.25 mg/mL (≈ 4.34 mM) in the data set “physchem” (20% dimethylacetamide); 0.412 mg/mL (≈ 1.43 mM) in the data set “physchem” (setting [5]); 0.663 mg/mL (≈ 2.31 mM) in “physchem” (setting [6]). For the same compound, the solubility at 72 h is 3.56 mg/mL (≈ 12.4 mM) in the data set “physchem” (30% dimethylacetamide); 9.96 mg/mL (≈ 34.6 mM) in the data set “physchem” (40% dimethylacetamide); 3.53 mg/mL (≈ 12.3 mM) in “physchem” (setting [7]); 3.06 mg/mL (≈ 10.6 mM) in the data set “physchem” (setting [8]); 89.1 mg/mL (≈ 310 mM) in the data set “physchem” (50% dimethylacetamide); 256 mg/mL (≈ 892 mM) in the data set “physchem” (60% dimethylacetamide). Besides, the solubility at 72 h is 43.7 mg/mL (≈ 152 mM) in the data set “physchem” (setting [9]); 16.3 mg/mL (≈ 56.6 mM) in “physchem” (setting [10]); 419 mg/mL (≈ 1460 mM) in “physchem” (80% dimethylacetamide); 126 mg/mL (≈ 439 mM) in “physchem” (setting [11]); 643 mg/mL (≈ 2240 mM) in “physchem” (setting [12]); 758 mg/mL (≈ 2640 mM) in “physchem” (100% dimethylacetamide, organic solvent or mixture). In addition, the solubility at 72 h in the data set “physchem” (setting [13]) is 284 mg/mL (≈ 987 mM); in the data set “physchem” (setting [14]), 81.7 mg/mL (≈ 284 mM). The same compound returned a Solubility in “physchem” (100% peg 400, 72 h) of 3460. mg/mL. The “solubility in alcohols, dimethyl sulfoxide, propylene glycol and aqueous polyethylene glycols” value in data set [4] is “soluble”.
